The values that follow come from ChEMBL document CHEMBL5226288, “A perspective on medicinal chemistry approaches towards adenomatous polyposis coli and Wnt signal based colorectal cancer inhibitors” (Eur J Med Chem, 2021).

Assay [1] concerns HCT-116. Briefly: Antiproliferative activity against human HCT-116 cells assessed as reduction in cell proliferation incubated for 24 hrs by MTT assay. In kind it is functional, cell-based. Conditions: HCT-116, 24 h. On the technique in general: Tetrazolium dyes change colour on reduction, which living cells bring about.
The test system of assay [2] is SW480. Briefly: Antiproliferative activity against human SW480 cells assessed as reduction in cell proliferation incubated for 24 hrs by MTT assay. In kind it is functional, cell-based. The settings on record: SW480, 24 h.
For the next assay, the species on record is Mus musculus. Briefly: Anticancer activity against C57BL/6J mouse small intestine organoid assessed as decrease in cell growth and measured after 4 days by qPCR analysis. In kind it is functional. The settings on record: 96 h. (In qPCR the cycle at which signal appears reflects the starting amount.)
Assay [3] concerns DLD-1. In words: Anticancer activity against human DLD-1 cells assessed as reduction in cell viability. In kind it is functional, cell-based.
Assay [4] has as its system SW480. In words: Anticancer activity against human SW480 cells assessed as reduction in cell viability. In kind it is functional, cell-based.
Assay [5] concerns HCT-116. In words: Anticancer activity against human HCT-116 cells assessed as reduction in cell growth incubated for 72 hrs by MTT assay. Type of assay: functional, cell-based. Conditions: HCT-116, 72 h.
Assay [6] deals with DLD-1. Briefly: Anticancer activity against human DLD-1 cells assessed as reduction in cell growth incubated for 72 hrs by MTT assay. Type of assay: functional, cell-based. The settings on record: DLD-1, 72 h.
Assay [7] has as its system SW480. In words: Anticancer activity against human SW480 cells assessed as reduction in cell growth incubated for 72 hrs by MTT assay. Type of assay: functional, cell-based. Conditions: SW480, 72 h.
Assay [8] relates to HCT-116. Briefly: Antiproliferative activity against human HCT-116 cells assessed as reduction in cell viability. In kind it is functional, cell-based.
Assay [9] relates to SW480. Briefly: Antiproliferative activity against human SW480 cells assessed as reduction in cell viability. Type of assay: functional, cell-based.
Assay [10] relates to DLD-1. In words: Anticancer activity against human DLD1 cells expressing APC mutant assessed as reduction in cell viability by dual-glo luciferase assay. In kind it is functional, cell-based.
Assay [11] deals with DLD-1. In words: Antiproliferative activity against human DLD-1 cells assessed as reduction in cell proliferation. In kind it is functional, cell-based.
Assay [12] has as its system SW480. Briefly: Antiproliferative activity against human SW480 cells assessed as reduction in cell proliferation. Type of assay: functional, cell-based.
For assay [13], the system named is HCT-116. In words: Antiproliferative activity against human HCT-116 cells assessed as decrease in cell growth incubated for 24 hrs by MTS assay. Type of assay: functional, cell-based. The settings on record: HCT-116, 24 h.
For assay [14], the system named is HCT-116. Briefly: Antiproliferative activity against human HCT-116 cells assessed as reduction in cell viability incubated for 48 hrs by MTT assay. Type of assay: functional, cell-based. The settings on record: Homo sapiens, HCT-116, 48 h; read-out: IC50.
Assay [15] deals with SW480. In words: Antiproliferative activity against human SW480 cells assessed as reduction in cell viability incubated for 48 hrs by MTT assay. Type of assay: functional, cell-based. Conditions: SW480, 48 h.
For assay [16], the system named is SW480. In words: Anticancer activity against human SW480 cells assessed as reduction in cell viability incubated for 24 hrs by MTT assay. The settings on record: SW480, 24 h. Type of assay: functional, cell-based.
The subject of assay [17] is HCT-116. Briefly: Anticancer activity against human HCT-116 cells assessed as reduction in cell viability incubated for 24 hrs by MTT assay. Type of assay: functional, cell-based. The settings on record: HCT-116, 24 h.
Assay [18] has as its target T1, Poly [ADP-ribose] polymerase tankyrase-2 (Homo sapiens, UniProt Q9H2K2).
T1 sequence (Q9H2K2 whole entry): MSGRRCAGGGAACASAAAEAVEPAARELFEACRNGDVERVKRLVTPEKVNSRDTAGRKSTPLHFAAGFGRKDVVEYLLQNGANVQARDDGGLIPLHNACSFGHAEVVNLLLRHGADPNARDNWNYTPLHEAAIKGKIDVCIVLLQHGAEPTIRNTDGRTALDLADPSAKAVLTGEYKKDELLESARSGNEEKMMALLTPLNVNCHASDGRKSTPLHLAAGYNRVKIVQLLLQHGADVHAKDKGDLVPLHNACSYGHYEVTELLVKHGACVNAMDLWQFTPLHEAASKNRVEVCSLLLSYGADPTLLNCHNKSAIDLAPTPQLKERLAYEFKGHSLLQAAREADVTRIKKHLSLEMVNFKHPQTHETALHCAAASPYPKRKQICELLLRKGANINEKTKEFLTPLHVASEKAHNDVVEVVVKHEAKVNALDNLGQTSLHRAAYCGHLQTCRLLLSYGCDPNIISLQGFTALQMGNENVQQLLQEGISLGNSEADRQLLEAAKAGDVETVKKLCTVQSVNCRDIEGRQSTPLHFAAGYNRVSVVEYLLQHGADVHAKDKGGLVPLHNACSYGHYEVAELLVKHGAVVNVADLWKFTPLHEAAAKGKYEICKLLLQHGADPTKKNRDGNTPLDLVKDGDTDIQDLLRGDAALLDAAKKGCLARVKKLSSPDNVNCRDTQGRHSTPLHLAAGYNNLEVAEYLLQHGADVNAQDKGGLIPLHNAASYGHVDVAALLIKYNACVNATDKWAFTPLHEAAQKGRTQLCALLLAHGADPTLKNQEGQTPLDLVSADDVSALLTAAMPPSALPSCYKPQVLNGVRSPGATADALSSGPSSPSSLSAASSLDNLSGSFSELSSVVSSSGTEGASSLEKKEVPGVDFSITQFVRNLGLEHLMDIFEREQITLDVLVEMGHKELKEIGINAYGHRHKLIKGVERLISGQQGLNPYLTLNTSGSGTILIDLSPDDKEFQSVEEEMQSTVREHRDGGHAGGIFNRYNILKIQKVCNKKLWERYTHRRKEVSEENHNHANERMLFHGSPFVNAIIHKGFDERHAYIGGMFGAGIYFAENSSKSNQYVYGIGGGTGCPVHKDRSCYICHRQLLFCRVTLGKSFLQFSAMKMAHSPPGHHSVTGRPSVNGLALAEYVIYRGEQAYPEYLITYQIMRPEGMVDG
Briefly: Inhibition of TNKS2 (unknown origin).

The target in assay [19] is T2, Poly [ADP-ribose] polymerase tankyrase-1 (Homo sapiens, UniProt O95271).
T2 sequence (O95271 whole entry): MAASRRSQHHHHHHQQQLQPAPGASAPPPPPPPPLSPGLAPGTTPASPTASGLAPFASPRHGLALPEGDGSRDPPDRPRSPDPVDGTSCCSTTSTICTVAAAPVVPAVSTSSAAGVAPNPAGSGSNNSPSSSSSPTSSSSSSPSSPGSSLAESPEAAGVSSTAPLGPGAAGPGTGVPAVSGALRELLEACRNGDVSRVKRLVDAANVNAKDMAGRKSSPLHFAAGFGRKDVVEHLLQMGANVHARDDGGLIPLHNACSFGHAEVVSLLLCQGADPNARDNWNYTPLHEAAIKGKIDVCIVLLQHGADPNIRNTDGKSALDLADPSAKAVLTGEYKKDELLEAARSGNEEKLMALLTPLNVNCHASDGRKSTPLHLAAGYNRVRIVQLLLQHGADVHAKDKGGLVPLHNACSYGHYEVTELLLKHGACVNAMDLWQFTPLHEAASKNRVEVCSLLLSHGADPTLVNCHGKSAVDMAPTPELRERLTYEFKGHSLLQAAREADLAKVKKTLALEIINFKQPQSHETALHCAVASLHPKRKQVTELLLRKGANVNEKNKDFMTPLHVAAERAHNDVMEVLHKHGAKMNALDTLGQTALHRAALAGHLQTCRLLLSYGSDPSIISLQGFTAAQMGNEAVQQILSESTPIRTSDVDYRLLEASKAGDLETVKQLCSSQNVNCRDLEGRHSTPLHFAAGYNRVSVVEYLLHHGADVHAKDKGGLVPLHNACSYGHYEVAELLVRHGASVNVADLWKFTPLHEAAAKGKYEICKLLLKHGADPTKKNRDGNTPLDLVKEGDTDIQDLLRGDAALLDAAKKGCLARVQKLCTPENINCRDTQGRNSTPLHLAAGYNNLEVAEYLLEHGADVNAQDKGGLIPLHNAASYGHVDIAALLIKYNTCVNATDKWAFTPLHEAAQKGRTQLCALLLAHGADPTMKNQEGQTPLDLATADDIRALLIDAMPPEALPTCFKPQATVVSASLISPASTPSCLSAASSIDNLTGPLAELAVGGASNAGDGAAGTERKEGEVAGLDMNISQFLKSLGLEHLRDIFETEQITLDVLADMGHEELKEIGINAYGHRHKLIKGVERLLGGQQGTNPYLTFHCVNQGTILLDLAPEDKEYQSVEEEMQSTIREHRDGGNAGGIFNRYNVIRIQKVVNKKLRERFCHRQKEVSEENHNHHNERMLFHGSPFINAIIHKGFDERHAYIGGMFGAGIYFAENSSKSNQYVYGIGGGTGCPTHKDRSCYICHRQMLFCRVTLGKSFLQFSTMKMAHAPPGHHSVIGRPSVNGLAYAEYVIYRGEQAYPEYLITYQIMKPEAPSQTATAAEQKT
Briefly: Inhibition of TNKS1 (unknown origin).

Take `CC1(C)C=Cc2c(ccc(C(=O)/C=C/c3ccccc3)c2O)O1` [LONCHOCARPIN]: the IC50 in the assay with HCT-116 [1] and with SW480 [2] was 20 µM each time.

In the case of `CS(=O)(=O)c1ccccc1N1CCN(c2nc(O)c3c(n2)CCSC3)CC1`, the IC50 (commonly the concentration needed to halve the response being measured) in the assay filed under Mus musculus was determined as 110 nM.

For the molecule `S=C=NCCc1ccccc1` [PHENETHYLISOTHIOCYANATE], the 50% inhibitory concentration (IC50) with DLD-1 [3] worked out at 54.6 µM; in the assay on SW480 [4], 35.6 µM.

For `O=C(/C=C/C=C/c1ccc2c(c1)OCO2)N1CCCCC1` [PIPERINE], the IC50 in the assay with HCT-116 [5], in the assay with DLD-1 [6] and with SW480 [7] was < 200 µM in each case.

Consider `CC(C)=CCc1c(O)ccc(C(=O)/C=C/c2ccc(O)cc2)c1O` [ISOBAVACHALCONE], for which the IC50 in the assay with HCT-116 [8] is 75.5 µM; with SW480 [9], 44.1 µM.

For the molecule `CCN(C(=O)C1CCN(S(=O)(=O)c2cc(Br)cc3c2N(C(C)=O)CC3)CC1)c1cccc(C)c1`, in the assay on DLD-1 [10], the IC50 came out at 900 nM.

`O=C(O)c1ccc(-n2nc(-c3ccccc3O)nc2-c2ccccc2O)cc1` [DEFERASIROX]: the figures for the IC50 with DLD-1 [11] and in the assay on SW480 [12] were 3.4 µM and 3.9 µM, respectively.

Regarding `O=C(O[C@@H]1Cc2c(O)cc(O)cc2O[C@@H]1c1cc(O)c(O)c(O)c1)c1cc(O)c(O)c(O)c1` [EPIGALOCATECHIN GALLATE], the IC50 with HCT-116 [13] stood at 5 µM.

As for `CC(=O)N(O)CCCCCNC(=O)CCC(=O)N(O)CCCCCNC(=O)CCC(=O)N(O)CCCCCN` [DEFEROXAMINE], the IC50 in the assay with DLD-1 [11] worked out at 2.9 µM; in the assay on SW480 [12] it was 3.8 µM.

Consider `C=C1C(=O)[C@@]23[C@H](O)CC4C(C)(C)[C@@H](OC(C)=O)CC[C@@]4(C)[C@@H]2[C@@H]2O[C@@H]2[C@@H]1[C@H]3O` (some centres not stated), for which the IC50 with HCT-116 [14] and in the assay on SW480 [15] was 20 µM each time.

In the case of `CC(C)(C)[Si](OC[C@@]1(C)C2CC[C@@]3(CO3)[C@@H](C/C=C3/C(=O)OC[C@H]3O)[C@]2(C)CC[C@H]1O)(c1ccccc1)c1ccccc1` (some centres not stated), the IC50 in the assay on SW480 [16] is 16.1 µM; in the assay with HCT-116 [17] it was 18.2 µM.

As for `Cc1ccccc1-n1c(/C=C/c2nnc(-c3ccc(C#N)cc3)o2)nnc1-c1ccc(S(C)(=O)=O)cn1`, the figures for the IC50 in [18] and in assay [19] were 25 nM and 46 nM, respectively.
